Values joined by “and” are separate entries in the source; they are usually repeats but may differ in a detail not shown here. Identical values can stand only once. Like-named read-outs stand apart in the source and are kept apart here.
How the values were obtained:
[1] = system: mutant GT1b subgenomic luciferase replicons in Huh7-Lunet cells; assay type: cell-based, Hepatitis C virus genotype 1b; conditions: for sensitivity of the generated mutant replicons compared to WT: site-directed mutant replicons, data not shown; for fold reduction in sensitivity (based on EC50-values) compared to WT replicon: luciferase assay
[2] = system: DEB025^res HCV subgenomic replicon (Con1-GT1b) in Huh 9–13 cells; set-up: method as in PMID 19104013; conditions: cited from earlier work
Description: (§1) Replicon-containing cells were continuously passaged in these double-selection media. When cultures had adapted to replication in the presence of a particular concentration of DEB025 (i.e. no more massive cell death) the concentration was increased in steps of 0.21 µM (typically every 3 passages).

[3] = system: CsA^res HCV subgenomic replicon (Con1-GT1b) in Huh 9–13 cells; set-up: method as in PMID 19104013; conditions: cited from earlier work
[4] = system: CsA^res HCV subgenomic replicon (Con1-GT1b) in Huh 9–13 cells; conditions: read-out: EC50, inhibition of HCV replicon RNA, CsA^res Huh 9-13 culture, 72 h treatment, RT-qPCR, mean ± SD, at least three independent experiments
Description: as §1
(§2) HCV replicon RNA was quantified by means of RT-qPCR and is expressed as the percentage of HCV replicon RNA of the untreated control cells. Data are mean values±standard deviations for at least three independent experiments.
(§3) When cells suffered from compound pressure, G418 pressure was removed till cells recovered. […] Four independent resistance selection experiments were carried out, three with Huh 9–13 replicons and one with Huh 5–2 replicons.
(§4) HCV replication assays were performed and analysed using published procedures.

[5] = system: DEB025^res HCV subgenomic replicon (Con1-GT1b) in Huh 9–13 cells; conditions: read-out: EC50, inhibition of HCV replicon RNA, DEB025^res Huh 9-13 culture, 72 h treatment, RT-qPCR, mean ± SD, at least three independent experiments
Description: as §1, §2, §3, §4

[6] = system: DEB025^res replicon RNA in Huh7-Lunet cells
Description: (§5) HCV replicon RNA was quantified by means of RT-qPCR and is expressed as the percentage of HCV replicon RNA of the untreated control cells. Data are mean values ± standard deviations for at least three independent experiments.
(§6) One day before lipofection, Huh7-Lunet cured cells were seeded in a 25 cm^2 flasks at a cell density of 5.26×10^5 cells. Just before transfection, the cells were washed once with opti-MEM® I (Invitrogen) and incubated for 4 h at 37°C with transfection medium containing: 26.3 µg of RNA, DMRIE-C Reagent (Invitrogen) and opti-MEM I serum free medium. Four hours post transfection, medium was replaced by culture medium without G418. Depending on the proliferation of the cells, G418 was gradually added to the cultures (to a final concentration of 1 mg/ml) to generate stable cell lines.

[7] = system: WT replicon RNA in Huh7-Lunet cells; conditions: read-out: EC50, inhibition of replicon RNA, Huh7-Lunet stably transfected with WT replicon RNA, RT-qPCR, mean ± SD
Description: as §5, §6

[8] = system: recombinant replicon with DEB025^res NS5A sequence in Huh7-Lunet cells
Description: (§7) The antiviral phenotype of this construct was evaluated in comparison with a construct into which the NS5A region derived from WT Huh 9–13 cells (which were cultured in parallel), was swapped.
(§8) For comparative reasons also the original unmanipulated vector was included in the analysis. […] Data are mean values ± standard deviations for at least three independent experiments. (C) Replication fitness of the different recombinant replicons. Huh7-Lunet cells were transiently transfected with each of the indicated replicon constructs and replicon RNA replication was quantified by means of a luciferase assay for 4 days post transfection. Data are normalized to the 4 h-value post electroporation to account for differences in electroporation efficiency and is expressed as percentage of the WT-value at 96 h post electroporation. Data are mean values ± standard deviations for at least two independent experiments.
(§9) RNA was isolated from either DEB025^res or WT HCV subgenomic replicon cells using the RNeasy mini kit (Qiagen). First-strand cDNA was synthesized using SuperScript II RT (Invitrogen). The NS5A or NS5B-containing regions were amplified in an AccuPrime Pfx DNA polymerase reaction (Invitrogen) for subsequent cloning into the WT Con1 plasmid. All constructs were sequenced to verify the correct manipulation.
(§10) Huh7-Lunet single-cell suspensions were prepared by trypsinization, washed twice with Opti-MEM® I (Invitrogen) and then resuspended at 1×10∧7 cells per ml in Cytomix containing 2 mM ATP and 5 mM glutathione. Ten µg of in vitro transcribed RNA was mixed with 400 µl cell suspension in a cuvette with a gap width of 4 mm (VWR International) and an ECM 830 Electro Square Porator™ (BTX Harvard Apparatus) was used to deliver 5 pulses at 900 V, 99 µsec. Cells were immediately transferred to 20 ml complete DMEM and seeded as required for the assay. Briefly, 100 or 700 µl aliquots of the cell suspension were seeded in a 96- or 24-well plate (Iwaki), respectively, filled with serial dilutions of the antiviral molecule in complete DMEM.

[9] = system: recombinant replicon with WT NS5A sequence in Huh7-Lunet cells; conditions: read-out: EC50, inhibition of replicon replication, replicon engineered to contain WT NS5A sequence, transient, 72 h, luciferase, mean ± SD
Description: as §7, §8, §9, §10

[10] = system: recombinant replicon with DEB025^res NS5B gene in Huh7-Lunet cells; assay type: cell-based, Hepatitis C virus genotype 1b; conditions: entire NS5B gene of DEB025^res replicon in WT background, control NS5B from WT cells
Description: as §8, §9
Huh7-Lunet single-cell suspensions were prepared by trypsinization, washed twice with Opti-MEM® I (Invitrogen) and then resuspended at 1×10∧7 cells per ml in Cytomix containing 2 mM ATP and 5 mM glutathione. […]

[11] = system: WT HCV subgenomic replicon (Con1-GT1b) in Huh 9–13 cells
Description: Huh7 cells containing subgenomic HCV genotype 1b replicon I377/NS3-3′/wt (Huh 9–13) [47], [48] and I389luc-ubi-neo/NS3-3′/5.1 (Huh 5–2) were used to select for resistance.

[12] = system: CypA-NS5A interaction
Description: We next studied whether the NS5A mutations, either alone or in combination, have an influence on (i) the binding of NS5A to CypA and (ii) the sensitivity of the CypA-NS5A interaction to DEB025.
Glutathione beads were added to the GST-CypA/NS5A-His mixture for 30 min at 4°C and washed. Bound material was eluted and analyzed by Western blotting using anti-His and anti-CypA antibodies. (C) The percentage of NS5A pulled down in the presence of increasing concentrations of DEB025, relative to the amount of NS5A pulled down in the absence of the drug.
NS5A mutants were created by site-directed mutagenesis.
Pull-down experiments were conducted as described previously [55]. Briefly, GST-CypA (100 ng) was mixed with 10 ng of NS5A-His in a total volume of 200 µl for 3 h at 4°C on a rotating wheel. Glutathione beads (25 µl) were added to the GST-CypA/NS5A-His mixture for 30 min at 4°C and samples were washed 3 times thereafter. […] Bound material was then analyzed by Western blotting using anti-CypA and anti-His antibodies as described previously [9]. […] To calculate the percent of NS5A pulled down relative to the amount of NS5A pulled down in the absence of the drug scans of ECL-developed films were analyzed by Bio-Rad densitometer model 620 and quantified by Bio-Rad Program Manager software (Bio-Rad Laboratories, Inc., Hercules, CA). […]

[13] = system: HCV subgenomic replicon (Con1-GT1b) in Huh 9–13 cells
[14] = cited from earlier work
Excerpt: (§11) Several CsA-analogues, i.e. NIM811 [19], DEB025 and SCY-635 [20], are currently in preclinical and clinical development. […] We reported earlier on the potent in vitro anti-HCV activity of DEB025 [22] and on the particular characteristics of its anti-HCV activity.

[15] = system: HCV; conditions: cited from earlier work; for viral load reduction: genotype 1 null/partial responders, 29 days; for decrease in viral load: phase II
Excerpt: as §11

[16] = system: calcineurin; conditions: cited from earlier work
Excerpt: as §11

[17] = target: T1, CypA (Homo sapiens, UniProt P62937); conditions: cited from earlier work
T1 construct: made in house
T1 sequence (P62937 whole entry): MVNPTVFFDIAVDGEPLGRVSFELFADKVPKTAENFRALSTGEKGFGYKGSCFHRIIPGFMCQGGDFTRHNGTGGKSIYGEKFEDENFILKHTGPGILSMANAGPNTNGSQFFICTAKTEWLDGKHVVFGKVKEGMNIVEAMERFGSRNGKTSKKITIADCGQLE

[18] = system: replicons resistant to DAA inhibitors of different classes; conditions: cited from earlier work
[19] = system: JFH1-derived subgenomic replicon (GT2a); conditions: replicon with mutation near NS5A/NS5B cleavage site (position 464); cited from earlier work

C[C@@]1(O)[C@H](O)[C@@H](CO)O[C@H]1n1ccc(N)nc1=O [2′-C-methylcytidine]
sensitivity of the generated mutant replicons compared to WT [1]: retained WT-activity | antiviral activity against DEB025^res replicons compared to WT [2]: retained WT-antiviral activity | antiviral activity against CsA^res replicons compared to WT [3]: retained WT-antiviral activity

[N-]=[N+]=N[C@]1(CO)O[C@@H](n2ccc(N)nc2=O)[C@H](O)[C@@H]1O [4′-azidocytidine]
antiviral activity against DEB025^res replicons compared to WT [2]: retained WT-antiviral activity | antiviral activity against CsA^res replicons compared to WT [3]: retained WT-antiviral activity

COc1ccc2c(O[C@@H]3C[C@H]4C(=O)N[C@]5(C(=O)O)C[C@H]5/C=C\CCCCC[C@H](NC(=O)OC5CCCC5)C(=O)N4C3)cc(-c3csc(NC(C)C)n3)nc2c1 [BILN2061]
antiviral activity against DEB025^res replicons compared to WT [2]: retained WT-antiviral activity | antiviral activity against CsA^res replicons compared to WT [3]: retained WT-antiviral activity

C/C=C/C[C@@H](C)[C@@H](O)[C@H]1C(=O)N[C@@H](CC)C(=O)N(C)[C@H](C)C(=O)N(CC)[C@@H](C(C)C)C(=O)N[C@@H](C(C)C)C(=O)N(C)[C@@H](CC(C)C)C(=O)N[C@@H](C)C(=O)N[C@H](C)C(=O)N(C)[C@@H](CC(C)C)C(=O)N(C)[C@@H](CC(C)C)C(=O)N(C)[C@@H](C(C)C)C(=O)N1C [DEB025, Alisporivir]
EC50 [4]: 460 ± 260 nM | EC50 [5]: 2050 ± 560 nM | fold less active than in WT-transfected cell line ([6]; cells stably transfected with RNA from DEB025^res culture vs WT, on average): 10 fold | EC50 ([6]; read-out: EC50, inhibition of replicon RNA, Huh7-Lunet stably transfected with RNA from DEB025^res culture, RT-qPCR, mean ± SD, SD): 440 ± 70 nM | EC50 [7]: 40 ± 10 nM | fold change in sensitivity compared to WT [1]: 1.28 fold and 1.93 fold | fold reduction in sensitivity (based on EC50-values) compared to WT replicon ([1]; mutant A241P + R262Q + R318W + D320E): 4.33 fold | fold reduction in sensitivity (based on EC50-values) compared to WT replicon ([1]; mutant NS5A D320E): 3.92 fold and 3.9 fold | fold reduction in sensitivity (based on EC50-values) compared to WT replicon ([1]; mutant NS5A R318W): ~2 fold | effect of NS5B I432V on antiviral activity ([1]; mutant NS5B I432V, luciferase assay (Figure S1)): neither reduced the antiviral activity | fold reduction in sensitivity (based on EC50-values) compared to WT replicon ([1]; mutant R318W + D320E): 3.79 fold | EC50 ([8]; read-out: EC50, inhibition of replicon replication, replicon engineered to contain DEB025^res NS5A sequence, transient, 72 h, luciferase, mean ± SD, SD): 390 ± 150 nM | fold less active than in replicon with WT NS5A sequence ([8]; replicon with DEB025^res NS5A vs replicon with WT NS5A): 10 fold | EC50 [9]: 40 ± 10 nM | effect of DEB025^res NS5B gene in WT background on antiviral activity [10]: No reduction in antiviral activity | effect on WT replicon replication at a fixed concentration ([11]; 2.05 µM): completely inhibits WT replicon replication | EC50 ([11]; read-out: EC50, inhibition of HCV replicon RNA, WT Huh 9-13 culture, 72 h treatment, RT-qPCR, mean ± SD, at least three independent experiments, SD): 30 ± 10 nM | effect on the CypA-NS5A interaction ([12]; GST-CypA and His-tagged NS5A pull down, increasing drug concentrations): inhibit the CypA-NS5A interaction in a dose-dependent manner | effect on interactions between CypA and WT or mutated NS5A ([12]; WT versus mutated NS5A, pull down): equally disrupted | passages of selective pressure needed to select resistant replicons ([13]; Huh 9-13, stepwise increasing drug with G418, on average): 35 passages | time of selective pressure needed to select resistant replicons ([13]; Huh 9-13 / Huh 5-2, stepwise increasing drug with G418, average (four independent experiments for DEB025)): 20 weeks | adverse finding ([14]; 1000 mg dose, returned to baseline after treatment cessation): isolated and transient hyperbilirubinemia | tolerability ([14]; lower doses regimens): very well tolerated | viral load reduction ([15]; 400 mg daily (with initial loading dose) combined with pegIFN/RBV): −1.96 log10 IU/ml | viral load reduction ([15]; 800 mg daily combined with pegIFN/RBV): −2.38 log10 IU/ml | mean maximal decrease in HCV viral load ([15]; phase I, HCV/HIV-coinfected patients, monotherapy 1200 mg BID, after 15 days): −3.6 log10 IU/ml | decrease in viral load ([15]; treatment-naïve genotype 1 and 4 patients, therapy based on 1000 mg/day DEB025 (combined with pegIFN-α-2a)): −4.75 log10 IU/ml | decrease in viral load ([15]; treatment-naïve genotype 2 and 3 patients): up to −5.89 log10 IU/ml | inhibition of calcineurin [16]: do not inhibit calcineurin | affinity to CypA compared with CsA [17]: superior to that of CsA to CypA | activity against replicons resistant to DAA inhibitors compared to WT [18]: retained WT-activity | fold reduced sensitivity of resistant JFH1-derived replicon [19]: ~5 fold

CNC(=O)c1c(-c2ccc(F)cc2)oc2cc(N(CCO)S(C)(=O)=O)c(C3CC3)cc12 [HCV796, reference compound]
sensitivity of the generated mutant replicons compared to WT [1]: retained WT-activity

CCC[C@H](NC(=O)[C@@H]1[C@H]2CCC[C@H]2CN1C(=O)[C@@H](NC(=O)[C@@H](NC(=O)c1cnccn1)C1CCCCC1)C(C)(C)C)C(=O)C(=O)NC1CC1 [VX-950]
sensitivity of the generated mutant replicons compared to WT [1]: retained WT-activity | antiviral activity against DEB025^res replicons compared to WT [2]: retained WT-antiviral activity | antiviral activity against CsA^res replicons compared to WT [3]: retained WT-antiviral activity

Source: article PMC2965138, “DEB025 (Alisporivir) Inhibits Hepatitis C Virus Replication by Preventing a Cyclophilin A Induced Cis-Trans Isomerisation in Domain II of NS5A” (PLoS ONE, 2010)
